US4999372A, “New aminochromanol compounds” (ADIR et Compagnie, priority 1988, dated 1991)
Where two headings read alike, the source gives them in different places.

Key:
aorta of the rat [1] = experiment: Reactivity of rat aortic rings to 4-aminopyridine (4 AP); type: cell-based; details: product 10^-5 M, 4 AP 5 mM; listed as Ex. 1 Form A
Method: (§1) Male Wistar rats (325-375 g) are anaesthetised i.p. using sodium pentobarbital (30 mg/kg). The thoracic aorta and the mesenteric portal vein are removed. The aorta is dissected into rings 3 mm long and the endothelium is removed mechanically.
(§2) The organs are placed in a 20 ml thermostatically controlled vessel containing a physiological solution composed of (mM): NaCl 112; KCl 5; KH2 PO4 1; MgSO4 1.2; CaCl2 2.5; NaHCO3 25; glucose 11.5; EDTA 0.1; pH: 7.4; 37° C.; 95% O2 +5% CO2.
(§3) The initial force applied is 2 g in the case of the aorta and 0.5 g in the case of the portal vein. The variations in force are measured by a STATHAM sensor connected to a transducer amplifier (GOULD) and are monitored continuously on a GOULD 2400 graphic recorder.
(§4) The experimental protocols are as follows: After a stabilisation period of 90 minutes, the aortic rings are subjected to various tests:
reactivity to 4-aminopyridine (4 AP)
The product to be tested, at a given concentration, or its solvent, is incubated in the normal physiological solution 15 minutes before the addition of the 4 AP (5 mM).
The maximum amplitudes of the responses to the 4 AP in the presence of the product or the solvent are compared.
(§5) The products are used in a form dissolved in water or a suitable solvent.
(§6) The concentrations expressed refer to the final concentrations in terms of base in the isolated organ baths.

anaesthetised dog = experiment: Haemodynamic study in the anaesthetised dog (vascular resistances), i.v.; type: in vivo
Method: A complete haemodynamic study was carried out on mongrel dogs weighing from 25 to 30 kg, which were anaesthetised with sodium pentobarbital 30 mg/kg i.v., intubated and ventilated and subjected to a thoracotomy at the 5th left intercostal space. The measurement of the […] is carried out using electromagnetic rings positioned at the level of the ascending aorta and the circumflex branch of the left coronary artery, respectively, and connected to GOULD SP 2202 electromagnetic flow meters. The aortic pressure is measured by a MILLAR probe introduced via the femoral artery.
The total peripheral vascular resistance values (TPR) and the mean coronary vascular resistance values (CVRM) are calculated by the ratio between the mean aortic pressure and the mean cardiac output and the mean coronary output, respectively. The products tested were injected via the femoral vein in a form dissolved in water or a suitable solvent.
The evolution of the vascular resistances, expressed as percentage variation with respect to the control values, is presented as a function of time in the following Table.

aorta of the rat [2] = experiment: Relaxation of rat aortic rings contracted by potassium depolarisation (KCl); type: cell-based; details: rat aorta rings without endothelium
Method: as §1, §2, §3, §4
potassium depolarisation:
The preparations are exposed to a 30 mM or 80 mM KCl (and 87 and 37 mM NaCl, respectively) hyperpotassium medium; after 30 minutes' stabilisation of contraction, cumulative concentrations of the product to be tested are added every 15 minutes. The relaxation values obtained allow the IC50 s to be calculated.
as §5, §6

[3] = system: conscious renally hypertensive dog; experiment: Arterial pressure in the conscious renally hypertensive dog; type: in vivo; details: gastric intubation, 0.1 mg/kg
Method: Mongrel dogs weighing from 20 to 25 kg are used. A silastic catheter positioned under anaesthesia (sodium pentobarbital 30 mg/kg i.v.) at the level of the abdominal aorta and left over a prolonged period permits the later measurement of the arterial pressure in the conscious animals. Arterial hypertension is induced by a second intervention under anaesthesia consisting in a constriction of the left renal artery using a clip, which reduces its rate of flow by approximately 70%, the left kidney is enveloped in a latex capsule and the contralateral kidney is left in place.
The systolic and diastolic arterial pressures (PAS and PAD) are measured using a STATHAM P23 pressure sensor connected to the silastic catheter and linked to a GOULD pressure amplifier. The products are tested on the animals, which have become hypertensive, in the conscious state, at least one week after the second intervention. The arterial pressure is monitored continuously on an ES1000 GOULD recorder until 7 hours have elapsed after the treatment and then until 24 hours have elapsed.
The products to be tested are administered via the digestive system, after gastric intubation, in a form dissolved in water or a suitable solvent. The doses administered are expressed in mg of base with respect to body weight.
The representative products of the invention were compared with the reference product (CROMAKALIM). The variations in the systolic and diastolic arterial pressures (PAS and PAD), presented at the most significant times after treatment, are expressed as percentage variation with respect to the control values.

[4] = system: spontaneously hypertensive rat (SHR); experiment: Arterial pressure in the conscious spontaneously hypertensive rat (SHR), oral; type: in vivo
Method: The study is carried out on SHR male rats (Charles River) weighing from 260 g to 330 g and aged from 18 to 20 weeks. A polyethylene catheter is positioned at the level of the abdominal aorta and tunnelised at the level of the neck under anaesthesia (ketamine hydrochloride 150 mg/kg intraperitoneally). The animals, placed in movement-restraining cages, are tested in the conscious state at least 48 hours after intervention. The arterial pressure, measured by a STATHAM P23 pressure sensor connected to the abdominal catheter, is registered on a GOULD 2400 recorder. […] The doses administered are expressed in mg/kg of base.
The results obtained with a certain number of representative products of the invention and a reference product, CROMAKALIM, are grouped in the following Table. The variations in systolic and diastolic arterial pressure (PAS and PAD) presented at the most significant times after treatment are expressed as percentage variation with respect to the control values.

[5] = Rattus norvegicus, 80 mM KCl, read-out: IC50 (M) KCl 80 mM

## CC1(C)Oc2ccc(C#N)cc2C(N2C(=O)CC[C@H]2CO)C1O (single isomer, unassigned) [Example 1 form A, 3R,4S- or 3S,4R-trans-2,2-dimethyl-3-hydroxy-4-(2-oxo-5S-hydroxymethyl-1-pyrrolidinyl)-6-cyanochroman]
Aorta of the rat [1]
  % inhibition of the response to 4AP: 35%
Anaesthetised dog; 300 μg/kg, 1 min
  Variation (%) of CVRM after treatment: -81.5%
  Variation (%) of TPR after treatment: -41.9%
Anaesthetised dog; 300 μg/kg, 10 min
  Variation (%) of CVRM after treatment: -50.3%
  Variation (%) of TPR after treatment: -17.2%
Anaesthetised dog; 300 μg/kg, 30 min
  Variation (%) of CVRM after treatment: -34.9%
  Variation (%) of TPR after treatment: -12.9%
Aorta of the rat [2]; [5]
  IC50: > 0.0001 M
Aorta of the rat [2]; 30 mM KCl, listed as Ex. 1 Form A, read-out: IC50 (M) KCl 30 mM
  IC50: 7.7e-06 M

## COC[C@@H]1CCC(=O)N1C1c2cc(C#N)ccc2OC(C)(C)C1O (single isomer, unassigned) [Example 2 form A, 3S,4R- or 3R,4S-trans-2,2-dimethyl-3-hydroxy-4-(2-oxo-5S-methoxymethyl-1-pyrrolidinyl)-6-cyanochroman]
[3]; 1 H
  Variation (%) of PAD after treatment: -20%
  Variation (%) of PAS after treatment: -12%
[3]; 3 H
  Variation (%) of PAD after treatment: -32%
  Variation (%) of PAS after treatment: -28%
[3]; 7 H
  Variation (%) of PAD after treatment: -44%
  Variation (%) of PAS after treatment: -41%
[3]; 24 H
  Variation (%) of PAD after treatment: 0%
  Variation (%) of PAS after treatment: -2%
[3]; 30 min
  Variation (%) of PAD after treatment: -14%
  Variation (%) of PAS after treatment: -2%
Anaesthetised dog; 30 μg/kg, 1 min
  Variation (%) of CVRM after treatment: -28.9%
  Variation (%) of TPR after treatment: -9.8%
Anaesthetised dog; 30 μg/kg, 10 min
  Variation (%) of CVRM after treatment: -20.2%
  Variation (%) of TPR after treatment: -11.8%
Anaesthetised dog; 30 μg/kg, 30 min
  Variation (%) of CVRM after treatment: -22.1%
  Variation (%) of TPR after treatment: -11.8%
Anaesthetised dog; 100 μg/kg, 1 min
  Variation (%) of CVRM after treatment: -54.7%
  Variation (%) of TPR after treatment: -15.8%
Anaesthetised dog; 100 μg/kg, 10 min
  Variation (%) of CVRM after treatment: -56.1%
  Variation (%) of TPR after treatment: -14.7%
Anaesthetised dog; 100 μg/kg, 30 min
  Variation (%) of CVRM after treatment: -50.5%
  Variation (%) of TPR after treatment: -12.6%
Aorta of the rat [2]; Rattus norvegicus, 30 mM KCl, read-out: IC50 (M) KCl 30 mM
  IC50: 2.8e-07 M
Aorta of the rat [2]; [5]
  IC50: > 0.0001 M
[4]; 1.0 mg/kg, 1 H
  Variation (%) of PAD after treatment: -21 ± 4%
  Variation (%) of PAS after treatment: -16 ± 3%
[4]; 1.0 mg/kg, 3 H
  Variation (%) of PAD after treatment: -19 ± 3%
  Variation (%) of PAS after treatment: -12 ± 3%
[4]; 1.0 mg/kg, 6 H
  Variation (%) of PAD after treatment: -14 ± 2%
  Variation (%) of PAS after treatment: -9 ± 2%
[4]; 1.0 mg/kg, 30 min
  Variation (%) of PAD after treatment: -17 ± 3%
  Variation (%) of PAS after treatment: -11 ± 2%
[4]; 3.0 mg/kg, 1 H
  Variation (%) of PAD after treatment: -36 ± 3%
  Variation (%) of PAS after treatment: -26 ± 2%
[4]; 3.0 mg/kg, 3 H
  Variation (%) of PAD after treatment: -31 ± 3%
  Variation (%) of PAS after treatment: -25 ± 3%
[4]; 3.0 mg/kg, 6 H
  Variation (%) of PAD after treatment: -27 ± 3%
  Variation (%) of PAS after treatment: -21 ± 3%
[4]; 3.0 mg/kg, 30 min
  Variation (%) of PAD after treatment: -35 ± 3%
  Variation (%) of PAS after treatment: -24 ± 1%

## CN(C)C[C@@H]1CCC(=O)N1C1c2cc(C#N)ccc2OC(C)(C)C1O (single isomer, unassigned) [Example 3 form A, 3R,4S- or 3S,4R-trans-2,2-dimethyl-3-hydroxy-4-(2-oxo-5S-dimethylaminomethyl-1-pyrrolidinyl)-6-cyanochroman]
Anaesthetised dog; 3000 μg/kg, 1 min
  Variation (%) of CVRM after treatment: +2.5%
  Variation (%) of TPR after treatment: +1.7%
Anaesthetised dog; 3000 μg/kg, 10 min
  Variation (%) of CVRM after treatment: -38.5%
  Variation (%) of TPR after treatment: -6.8%
Anaesthetised dog; 3000 μg/kg, 30 min
  Variation (%) of CVRM after treatment: -49.0%
  Variation (%) of TPR after treatment: -8.5%
